From US9850221B2, “Sulfated and unsulfated flavonoid oligomers as cancer therapeutics” (VIRGINIA COMMONWEALTH UNIVERSITY, priority 2013, dated 2017)
pIC50: −log10 of the molar value.

Legend:
HT-29 cells [1] = experiment: Primary (1°) colonosphere formation assay, HT-29 (Screen 1); assay type: cell-based, human; conditions: steep dose-response profile; read-out: apparent IC50 for primary spheroid inhibition
Method: (§1) Primary (1°) Colonosphere Formation Assay. For primary sphere formation, cells were plated in non-treated, low adhesion, 96 wells plate at the concentration of 100 cells/100 μL/well in stem cell media (SCM) that consisted of DMEM:F12:AA (Gibco), supplemented with 1×B27 (Gibco), 20 ng/mL epidermal growth factor and 10 ng/mL fibroblast growth factor (Sigma). After four hour of incubation, vehicle (control) or NSGM at the desired concentrations were added to each well (at least in triplicates for each sample). On day five, numbers of spheres ranging from […] in diameter were counted using phase contrast microscope and percent inhibition was calculated compared to control.
(§2) In this screen, sulfated NSGMs that inhibit HT-29 growth under spheroid conditions, but not under monolayer conditions, were then assessed for retention of 2° and 3° spheroid growth inhibition profiles in the absence of NSGM. The latter screen is of particular importance as primary spheroid growth although selective for CSCs doses not distinguish between non self-renewing progenitors and self-renewing CSCs. […] These 11 NSGMs belonged to G2, G4, G11 and G12 scaffolds but only four of the six G2 molecules, one of the two G4, four of the seven G11 and two of the five G12 molecules satisfied the first screen.

LGR5 = experiment: Flow cytometry analysis of CSC markers in HT-29 spheroids; assay type: cell-based, human; conditions: 100 μM, vs vehicle-treated controls
Method: Flow Cytometry Analysis. Human colon cancer HT-29 cells, grown in spheroid or monolayer condition were treated with vehicle or NSGMs for 24 hours, were trypsinized and single cells were re-suspended at 10^6 cells/mL in PBS buffer. Cells were incubated with fluorophore conjugated antibody for 30 minutes at 4° C. and washed once with PBS buffer prior to analysis. Following antibody and dilution were used: LGR5-PE) (Dilution 1:50, Origene), DCLK1 (Dilution 1:33, Abeam). Cell sorting was performed using FACSAria™ II High-Speed Cell Sorter (BD Biosciences) and data were analyzed with FCS Express 4 Flow Cytometry software (De-Novo Software).

[2] = tested on: self-renewal factors OCT4, BMI-1, c-MYC; experiment: Western blot of self-renewal factors in spheroids; assay type: cell-based, human; conditions: 100 μM, HT-29
Method: (§3) Western Blotting Analysis. Western blot analysis was performed according to the standard protocol described in the literature. Briefly, HT-29 cells were plated in serum-free SCM in a low adhesion 6-well plate to obtain spheroids. Mature spheroids were treated on day 4 after plating, with vehicle or NSGMs for indicated time and cells were solubilized in lysis buffer (20 mM Na3PO4, 100 mM NaCl, 2 mM EDTA, 1% Nonidet P-40, 2.5 mM Na3VO4) containing protease (Roche) as well as phosphatase inhibitor cocktails (Sigma). Following centrifugation at 14,000 g for 15 min, the supernatant was used for Western blot analysis. In all analyses, protein concentration was determined by the Bio-Rad Protein Assay kit (Bio-Rad). Approximately 25-50 μg of protein was separated by polyacrylamide gel electrophoresis and was transferred to PVDF membrane (Bio-Rad). Blocking was done with 5% low fat milk powder for 1 hr followed by overnight incubation with primary antibody (dilution 1:1000): anti-CD44 (Cell Signaling), anti-EpCAM (Cell Signaling), anti-LGR5 (Origene), anti-CD133 ((Miltenyi Biotec), anti-CXCR4 (Abeam), anti-OCT4 (Cell Signaling), anti-BMI-1 (Millipore), anti-c-MYC (Millipore) and anti-CK20 (Abeam). This was followed by incubation with appropriate secondary antibody and protein bands were visualized using the enhanced chemiluminescence detection system and imaged with LAS-3000 Imaging System (FUJIFILM). Densitometry was determined by AIDA image analyzer software (Raytest) and results were calculated as relative intensity compared to control. All experiments were performed at least three times.

HCT-116 = experiment: Primary spheroid formation assay, HCT-116; assay type: cell-based, human; conditions: HCT-116 (p53 null)
Method: as §1, §2

[3] = tested on: Panc-1 (pancreatic) cancer cell lines; experiment: Primary spheroid formation assay, Panc-1; assay type: cell-based, human
Method: as §1

HT-29 colon cancer cells = experiment: Cell cycle distribution in spheroid cells; assay type: cell-based, human; conditions: 24 hours, 100 μM, vs vehicle
CSC markers mRNA = experiment: Real-time PCR of CSC marker mRNA; assay type: cell-based, human; conditions: 6 hours following treatment
Method: Real-Time PCR Analysis. Total RNA was isolated using the mirVana™ miRNA Isolation Kit (Life technologies, Grand Island, N.Y.). 1 μg total RNA was reverse transcribed using First-Strand cDNA Synthesis Kit using hexamer reverse primer (Affymetrix). Real time QPCR was performed using RT^2 SYBR® Green qPCR Master mix (Qiagen) in a 7500 fast real time machine (Applied Biosystem). Relative expressions of mRNA were calculated using ΔΔCT methods using GAPDH as a loading control.

HT-29 cell line = experiment: MTT cell proliferation assay, monolayer growth; assay type: cell-based, human; conditions: monolayer conditions
Method: Cell Proliferation Assay. Cell proliferation was evaluated by (3-(4,5-dimethylthiazol-2-yl)-2,5-diphenyltetrazolium bromide) MTT cell proliferation assay. For HT-29 cell line approximately 2.5×10^3 cells/100 μL/well were plated in 96-well tissue culture treated plate. After overnight incubation at 37° C. vehicle (control) or NSGM was added at the desired concentration and the cells were further incubated for 60-72 h. At the end of the incubation, 10 μL of 5 mg/mL MTT solution (Sigma) made in phosphate buffered saline (PBS) (Gibco) was added to each well and incubated for minimum of 2 to 3 hr until crystals formation was observed. Following this, 150 μL of 4 mM HCl (Sigma) in isopropanol solution was added drop wise to each well and the mixture was triturated until the crystals dissolve completely. Finally, the plate was placed on the spectrophotometer reader and read at 590 nm and growth inhibition was calculated as percent of control.

[4] = Animal weight in mice tumor xenograft model; assay type: in vivo, NOD-SCID mice; conditions: intratumoral, appx 1.125 mg three times a week for three weeks
Method: One million HCT116 cells were washed with PBS and injected subcutaneously (0.2 mL cell suspension in 50% matrigel) into 6-week-old NOD-SCID mice (Taconic Incorporation, Germantown, N.Y.) on both flanks. Once the tumors become palpable, 16 mice were randomized into two groups. In the treatment group, animals received direct intratumoral (IT) injection of appx 1.125 mg of G2.2 dissolved in 75 μl PBS (pH=7.4) solution three times a week for three weeks (a total of 10 mg of G2.2 over three weeks). Control animals were also received IT injection with 75 μl of vehicle alone (PBS) on the same schedule. Tumor size was measured three times a week using caliber and tumor volume was calculated as previously described. Mice were also weighed three times a week. All the animals were sacrificed within 1 week after completion of therapy using approved method of CO2 asphyxiation. Tumor xenografts were minced with scalpels blade into small pieces and then digested in DMEM/F12 medium containing 300 units/mL collagenase (Stem Cell Technologies) and 100 units/mL hyaluronidase (Stem Cell Technologies) for 1 hr at 37° C. Cells were then washed and re-suspended to a final concentration of 10^6 cell/mL in DMEM/2% FBS. Cell suspensions from the tumor samples were incubated with PE conjugated LGR5 or CXCR4 antibody for 30 minutes and washed two times with PBS buffer and then analyzed (FIG. 18A-B). […]

[5] = tested on: CSC markers CD44, CD133, EpCAM, LGR5, CXCR-4; experiment: Western blot of CSC markers in HT-29 spheroids; assay type: cell-based, human; conditions: 100 μM; for reduction of expression of CSC markers (CD44, CD133, EpCAM, LGR5, CXCR-4): HT-29 spheroids, Western blot densitometry vs vehicle
Method: as §3

HCT116 cells = experiment: Mice tumor xenograft model, intratumoral G2.2; assay type: in vivo, NOD-SCID mice
Method: One million HCT116 cells were washed with PBS and injected subcutaneously (0.2 mL cell suspension in 50% matrigel) into 6-week-old NOD-SCID mice (Taconic Incorporation, Germantown, N.Y.) on both flanks. Once the tumors become palpable, 16 mice were randomized into two groups. In the treatment group, animals received direct intratumoral (IT) injection of appx 1.125 mg of G2.2 dissolved in 75 μl PBS (pH=7.4) solution three times a week for three weeks (a total of 10 mg of G2.2 over three weeks). Control animals were also received IT injection with 75 μl of vehicle alone (PBS) on the same schedule. Tumor size was measured three times a week using caliber and tumor volume was calculated as previously described. Mice were also weighed three times a week. All the animals were sacrificed within 1 week after completion of therapy using approved method of CO2 asphyxiation. Tumor xenografts were minced with scalpels blade into small pieces and then digested in DMEM/F12 medium containing 300 units/mL collagenase (Stem Cell Technologies) and 100 units/mL hyaluronidase (Stem Cell Technologies) for 1 hr at 37° C. Cells were then washed and re-suspended to a final concentration of 10^6 cell/mL in DMEM/2% FBS. Cell suspensions from the tumor samples were incubated with PE conjugated LGR5 or CXCR4 antibody for 30 minutes and washed two times with PBS buffer and then analyzed (FIG. 18A-B). […] However, none of these values were statistically significant (p>0.1).

CK20 = experiment: Differentiation assay (CK20 expression) in colonosphere cells; assay type: cell-based, human; conditions: spheroid cells on collagen, 2.5% serum, Western blot and immunocytochemistry
Method: Differentiation Assay. Single cell suspension from mature HT-29 colonosphere pre-treated with vehicle or G2.2 for 24 hours were plated on collagen coated glass cover slips or flasks in the presence of media supplemented with 2.5% FBS containing G2.2 or vehicle. At indicated time points, cells lysate was examined for CK-20 expression with western-blot as above. Alternatively, cells were fixed with 4% paraformaldehyde for 20 minutes at room temperature, permeabilized for 5 min in 0.5% Triton X-100 solution and blocked in PBS containing 1% BSA for one hour prior to incubation with anti-CK-20 antibody (Abeam) for 2 hours. Cells were then washed, incubated for 60 min with Alexa Fluor conjugate secondary antibodies, rinsed with blocking buffer and mounted on slides with DAPI containing ProLong® Gold Antifade Reagent (Invitrogen). Fluorescently labeled cells were examined using a Zeiss LSM700 laser scanning confocal microscope (Zeiss Micro imaging Inc.). Alexa Flour® 555 signals were imaged sequentially at 40× magnification in frame-interlaced mode to eliminate cross talk between channels.

[6] = tested on: HCT-116 cells, grown in spheroid condition; experiment: Apoptosis assay (annexin V/propidium iodide and acridine orange/ethidium bromide); assay type: cell-based, human
Method: Apoptosis Assay. Human colon cancer HCT-116 cells, grown in spheroid condition were treated with vehicle or NSGMs for 24 hours. Following which cells were trypsinized and single cells were re-suspended at 10^6 cells/mL in PBS buffer. Two different methods were used to assess apoptosis induction. In the first methods, cells were incubated with propidium iodide and Annexin V-APC (ebioscience) and flow cytometric analyses were performed as above. […] Briefly, a small volume of cell suspension was mounted on a glass slide and incubated with 1 μl of AO/EB solution and mixed gently just prior to microscopy and quantification. At least 500 cells in 10-15 fields were examined in each sample using Nikon ECLIPSE E800M fluorescence microscope using 20× objective. […] The data was expressed as apoptosis index=[([apoptotic cells (NSGMs)/total cells (NSGMs)]/[apoptotic cells (vehicle)/total cells (vehicle)]).

HT-29 cells [7] = experiment: Secondary (2°) and tertiary (3°) colonosphere assay, HT-29 (Screen 2); assay type: cell-based, human; conditions: no NSGM in 2° and 3° growth assays
Method: Secondary (2°) and Tertiary (3°) Colonosphere Assay. For secondary colonospheres, the 96-well plate of primary spheres was centrifuged at speed of 1000 rpm for 1 min and the supernatant was removed. Spheres that settled at the base of the plate were trypsinized with 20 μL/well and single cell suspension was prepared using vigorous mechanical dissociation. The numbers of viable cell were counted with 1:5 ratio of cell:trypan blue and then re-plated at 100 cells/[…] in SCM media in a low adhesion plate. No further treatment with NSGMs was performed. Numbers of spheres were counted as above on day 5. The same method was repeated for tertiary spheres.
The 11 sulfated NSGMs were then studied for their effect on 2° and 3° sphere formation (HT-29 and HCT-116) in Screen 2. By design, this screen reflects a test of true self-renewability of CSCs.^2,3 Single cell suspension obtained from primary spheres formed above was then cultured in the absence of NSGM.

[8] = compared to vehicle treated xenografts, flow cytometry

O=c1c(OS(=O)(=O)[O-])c(-c2ccc(OS(=O)(=O)[O-])c(OS(=O)(=O)[O-])c2)oc2cc(OS(=O)(=O)[O-])cc(OCCCOc3cc(OS(=O)(=O)[O-])cc4oc(-c5ccc(OS(=O)(=O)[O-])c(OS(=O)(=O)[O-])c5)c(OS(=O)(=O)[O-])c(=O)c34)c12.[Na+].[Na+].[Na+].[Na+].[Na+].[Na+].[Na+].[Na+] [G2.2]
pIC50 (HT-29 cells [1]): ~4.24 | reduction in LGR5 (hi) cells (LGR5): 39% | BMI-1 expression [2]: significant inhibition | OCT-4 levels [2]: little effect | c-MYC expression [2]: significant inhibition | inhibition of spheroid formation, potency relative to HT-29 (HCT-116): essentially identical potency | inhibition of spheroid formation, potency relative to HT-29 [3]: essentially identical potency | proportion of spheroid cells in G1 phase (cell cycle progression) (HT-29 colon cancer cells): small increase | mRNA levels of several CSC markers (CSC markers mRNA): marked decrease | inhibition of monolayer growth (bulk tumor cells) (HT-29 cell line): minimal effect | overall animal weight [4]: no effect | protein expression of CSC markers (LGR5, CXCR4) ([5]; 6 hours): minimal change | protein expression of CSC markers (LGR5, CXCR4) ([5]; 24 hours): significant decrease | reduction of expression of CSC markers (CD44, CD133, EpCAM, LGR5, CXCR-4) [5]: 25-55% | reduction in tumor volume (HCT116 cells; between days 5-19, intratumoral, not statistically significant (p>0.1)): 20-42% | attenuation of CXCR4 positive cells in xenografts (HCT116 cells; [8]): ~75% | attenuation of LGR5 positive cells in xenografts (HCT116 cells; [8]): ~78% | CK20 expression (colonic differentiation marker) (CK20): modest induction | induction of apoptosis in spheroid cells ([6]; annexin V labeling and acridine orange/ethidium bromide staining, 100 μM, 24 hours, vs vehicle): 2 to 3 fold | induction of apoptosis in CSC-poor monolayer counterparts ([6]; monolayer cells): did not induce apoptosis

O=c1c(OS(=O)(=O)[O-])c(-c2ccc(OS(=O)(=O)[O-])c(OS(=O)(=O)[O-])c2)oc2cc(OS(=O)(=O)[O-])cc(OCCOc3cc(-c4oc5cc(OS(=O)(=O)[O-])cc(OCCOc6cc(OS(=O)(=O)[O-])cc7oc(-c8ccc(OS(=O)(=O)[O-])c(OS(=O)(=O)[O-])c8)c(OS(=O)(=O)[O-])c(=O)c67)c5c(=O)c4OS(=O)(=O)[O-])ccc3OS(=O)(=O)[O-])c12.[Na+].[Na+].[Na+].[Na+].[Na+].[Na+].[Na+].[Na+].[Na+].[Na+].[Na+] [G4.1]
Screen 2 outcome (2° and 3° spheroid growth inhibition) (HT-29 cells [7]): completely failed | reduction of expression of CSC markers (CD44, CD133, EpCAM, LGR5, CXCR-4) [5]: no effect
